Source: patent publication US12459951B2, “Compounds that interact with RAS superfamily proteins for treatment of cancers, inflammatory diseases, rasopathies, and fibrotic disease” (SHY Therapeutics, LLC, priority 2022, dated 2025)

System: MAPK p38 phosphorylation
Experiment: MAPK p38 Activation Assay (western blot), Panc-1
Type: cell-based, human
Details: at 10 μM, Panc-1 pancreatic cancer cell line; starred symbols = activation
Procedure, shortened: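 Panc-1 cells (KRas G12D) were treated with compound for 6 h at 37 °C, at 10 μM or as serial dilutions for IC50, with 0.3% DMSO. Method 1 used overnight serum-starved cells (0.5% FBS) stimulated with 1.5 ng/ml EGF for 15 min; Method 2 used unstimulated cells in 10% FBS. Phospho-p38 (Thr180/Tyr182) was detected by western blot.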

Row | Structure (SMILES) | % inh of MAPK p38 in Panc-1
1 | CO[C@H]1CC[C@@H](Nc2nc(-c3nccn3C)nn3cc(-c4ccn(C(C)C)n4)c(C(C)C)c23)C1 (racemic) [Compound 36, rac 5-Isopropyl-6-(1-isopropyl-1H-pyrazol-3-yl)-N-((1R,3S)-3-methoxycyclopentyl)-2-(1-methyl-1H-imidazol-2-yl)pyrrolo[2,1-f][1,2,4]triazin-4-amine] | H* (H* ≥ 100% activation)
2 | COCCNc1nc(-c2nccn2C)nn2cc(-c3cccc(OC)c3Cl)c(-c3ccccc3)c12 [Compound 29, 6-(2-Chloro-3-methoxyphenyl)-N-(2-methoxyethyl)-2-(1-methyl-1H-imidazol-2-yl)-5-phenylpyrrolo[2,1-f][1,2,4]triazin-4-amine] | H (H = 100% inhibition)
3 | COC1CCCN(c2nc(-c3ccccn3)nn3cc(-c4ccn(C(C)C)n4)c(-c4ccccc4)c23)C1 (racemic) [Compound 27, rac 6-(1-Isopropyl-1H-pyrazol-3-yl)-4-(3-methoxypiperidin-1-yl)-5-phenyl-2-(pyridin-2-yl)pyrrolo[2,1-f][1,2,4]triazine] | H* (H* ≥ 100% activation)
4 | COc1ccc(-c2cn3nc(-c4nccn4C)nc(Nc4cc(OC)ncn4)c3c2C)cn1 [Compound 66, 6-(6-Methoxypyridin-3-yl)-N-(6-methoxypyrimidin-4-yl)-5-methyl-2-(1-methyl-1H-imidazol-2-yl)pyrrolo[2,1-f][1,2,4]triazin-4-amine] | H* (H* ≥ 100% activation)
5 | COc1cc(Nc2nc(-c3nccn3C)nn3cc(-c4cccc(OC)n4)c(C)c23)ncn1 [Compound 65, 6-(6-Methoxypyridin-2-yl)-N-(6-methoxypyrimidin-4-yl)-5-methyl-2-(1-methyl-1H-imidazol-2-yl)pyrrolo[2,1-f][1,2,4]triazin-4-amine] | H* (H* ≥ 100% activation)
6 | COc1cccc(-c2cn3nc(-c4nccn4C)nc(N[C@H]4C[C@H](OC)C4)c3c2-c2ccn(C)n2)c1F [Compound 47, 6-(2-Fluoro-3-methoxyphenyl)-N-((1r,3r)-3-methoxycyclobutyl)-2-(1-methyl-1H-imidazol-2-yl)-5-(1-methyl-1H-pyrazol-3-yl)pyrrolo[2,1-f][1,2,4]triazin-4-amine] | F (F = 31-74% inhibition)
7 | COCCCNc1nc(-c2nccn2C)nn2cc(-c3cccc(OC)c3Cl)c(-c3ccccc3)c12 [Compound 30, 6-(2-Chloro-3-methoxyphenyl)-N-(3-methoxypropyl)-2-(1-methyl-1H-imidazol-2-yl)-5-phenylpyrrolo[2,1-f][1,2,4]triazin-4-amine] | F (F = 31-74% inhibition)
8 | COC[C@@H]1CC[C@@H]1CNc1nc(-c2ccccn2)nn2cc(-c3ccn(C(C)C)n3)c(-c3ccccc3)c12 (racemic) [Compound 26, rac 6-(1-Isopropyl-1H-pyrazol-3-yl)-N-(((1S,2R)-2-(methoxymethyl)cyclobutyl)methyl)-5-phenyl-2-(pyridin-2-yl)pyrrolo[2,1-f][1,2,4]triazin-4-amine] | H* (H* ≥ 100% activation)
9 | COCCNc1nc(-c2nccn2C)nn2cc(-c3ccn(C(C)C)n3)c(C(C)C)c12 [Compound 35, 5-Isopropyl-6-(1-isopropyl-1H-pyrazol-3-yl)-N-(2-methoxyethyl)-2-(1-methyl-1H-imidazol-2-yl)pyrrolo[2,1-f][1,2,4]triazin-4-amine] | H* (H* ≥ 100% activation)
10 | CO[C@H]1CC[C@@H](Nc2nc(-c3ccccn3)nn3cc(-c4ccn(C(C)C)n4)c(-c4ccccc4)c23)C1 (racemic) [Compound 24, rac 6-(1-Isopropyl-1H-pyrazol-3-yl)-N-((1R,3S)-3-methoxycyclopentyl)-5-phenyl-2-(pyridin-2-yl)pyrrolo[2,1-f][1,2,4]triazin-4-amine] | H* (H* ≥ 100% activation)
11 | COc1cccc(-c2cn3nc(-c4nccn4C)nc(O)c3c2-c2ccccc2)c1Cl [Compound 28, 6-(2-Chloro-3-methoxyphenyl)-2-(1-methyl-1H-imidazol-2-yl)-5-phenylpyrrolo[2,1-f][1,2,4]triazin-4-ol] | H* (H* ≥ 100% activation)
12 | COc1cccc(-c2cn3nc(-c4nccn4C)nc(N[C@H]4C[C@@H](OC)C4)c3c2-c2ccccc2)c1Cl [Compound 31, 6-(2-Chloro-3-methoxyphenyl)-N-((1s,3s)-3-methoxycyclobutyl)-2-(1-methyl-1H-imidazol-2-yl)-5-phenylpyrrolo[2,1-f][1,2,4]triazin-4-amine] | H* (H* ≥ 100% activation)
13 | COc1cccc(Nc2nc(-c3nccn3C)nn3cc(-c4ccn(C(C)C)n4)c(-c4ccccc4)c23)n1 [Compound 23, 6-(1-Isopropyl-1H-pyrazol-3-yl)-N-(6-methoxypyridin-2-yl)-2-(1-methyl-1H-imidazol-2-yl)-5-phenylpyrrolo[2,1-f][1,2,4]triazin-4-amine] | H* (H* ≥ 100% activation)
14 | COCC1CCN(c2nc(-c3ccccn3)nn3cc(-c4ccn(C(C)C)n4)c(-c4ccccc4)c23)C1 (racemic) [Compound 25, rac 6-(1-Isopropyl-1H-pyrazol-3-yl)-4-(3-(methoxymethyl)pyrrolidin-1-yl)-5-phenyl-2-(pyridin-2-yl)pyrrolo[2,1-f][1,2,4]triazine] | H* (H* ≥ 100% activation)
15 | COc1cccc(-c2cn3nc(-c4nccn4C)nc(N[C@@H]4CC[C@H](OC)C4)c3c2-c2ccccc2)c1Cl (racemic) [Compound 33, rac 6-(2-Chloro-3-methoxyphenyl)-N-((1R,3S)-3-methoxycyclopentyl)-2-(1-methyl-1H-imidazol-2-yl)-5-phenylpyrrolo[2,1-f][1,2,4]triazin-4-amine] | H (H = 100% inhibition)

Target: T1, Rheb (Homo sapiens, UniProt Q15382)
T1 construct: made in house
Experiment: Rheb GTP Binding Domain Inhibition Assay
Details: read-out: Rheb: % inh.
Protocol: Protocol for Cdc42 and Rheb GTP Binding Domain Inhibition Assay
The following method was developed as specific assay for cdc42 and Rheb proteins.
• 25 mM Tris-HCl, pH 7.4 • 27 mM KCl • 137 mM NaCl • 1 mM MgCl2 • 1 mM DTT Buffer-II: • 50 mM Tris-HCl, pH 7.0 • 1 mM MgCl2 • 1 mM DTT
The small GTPases proteins cdc42 and Rheb were expressed as His-tagged proteins. For the assay, the cdc42 and Rheb purified small GTPases proteins were diluted in Buffer-I or Buffer-II to a final concentration of 10-30 μg/mL. 200 μL of each diluted protein was added to a nickel-coated 96-well plate and incubated overnight at […]. Then the protein solution was discarded and 200 μL of Buffer-I or Buffer-II was added to each well in the presence of 1% DMSO. Compounds to be tested were added to the protein-coated wells at final concentration of 20 μM, and incubated for 3 hours at room temperature with and without 10-30 μg/mL of Sos added to the final hour of the incubation. When performing IC50 measurements a serial dilution of all tested concentrations was added. Then Cy3-GTP or Cy5-GTP was added to each well to a final concentration of 100 nM. The labeled GTP was incubated for 45 minutes at room temperature. Following GTP incubation, wells were washed 3× in Buffer-I or Buffer-II and 200 μL of Buffer-I or Buffer-II was added to each well. Following washes, the amount of bound labeled-GTP was measured using a SpectraMax M3 (Molecular Devices).

T1 sequence (Q15382 whole entry): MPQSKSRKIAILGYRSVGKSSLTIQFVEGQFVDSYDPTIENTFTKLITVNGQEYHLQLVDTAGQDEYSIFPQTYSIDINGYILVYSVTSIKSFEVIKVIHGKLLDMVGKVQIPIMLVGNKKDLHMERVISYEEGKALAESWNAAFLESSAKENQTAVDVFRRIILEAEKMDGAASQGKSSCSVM

Row | Structure (SMILES) | inhibition at 20 µM [%]
16 | COc1ccc(-c2cn3nc(-c4nccn4C)nc(Nc4cc(OC)ncn4)c3c2C)cn1 [Compound 66, 6-(6-Methoxypyridin-3-yl)-N-(6-methoxypyrimidin-4-yl)-5-methyl-2-(1-methyl-1H-imidazol-2-yl)pyrrolo[2,1-f][1,2,4]triazin-4-amine] | 50 to 75
17 | COc1cc(Nc2nc(-c3nccn3C)nn3cc(-c4cccc(OC)n4)c(C)c23)ncn1 [Compound 65, 6-(6-Methoxypyridin-2-yl)-N-(6-methoxypyrimidin-4-yl)-5-methyl-2-(1-methyl-1H-imidazol-2-yl)pyrrolo[2,1-f][1,2,4]triazin-4-amine] | 0
18 | COc1cccc(-c2cn3nc(-c4nccn4C)nc(N[C@H]4C[C@H](OC)C4)c3c2-c2ccn(C)n2)c1F [Compound 47, 6-(2-Fluoro-3-methoxyphenyl)-N-((1r,3r)-3-methoxycyclobutyl)-2-(1-methyl-1H-imidazol-2-yl)-5-(1-methyl-1H-pyrazol-3-yl)pyrrolo[2,1-f][1,2,4]triazin-4-amine] | 1 to 25
19 | COc1cc(Nc2nc(-c3nccn3C)nn3cc(-c4cccnc4)c(C)c23)ncn1 [Compound 48, N-(6-Methoxypyrimidin-4-yl)-5-methyl-2-(1-methyl-1H-imidazol-2-yl)-6-(pyridin-3-yl)pyrrolo[2,1-f][1,2,4]triazin-4-amine] | 50 to 75
20 | COc1cncnc1Nc1nc(-c2nccn2C)nn2cc(-c3ccn(C(C)C)n3)c(C)c12 [Compound 73, 6-(1-Isopropyl-1H-pyrazol-3-yl)-N-(5-methoxypyrimidin-4-yl)-5-methyl-2-(1-methyl-1H-imidazol-2-yl)pyrrolo[2,1-f][1,2,4]triazin-4-amine] | 50 to 75
21 | COc1cc(Nc2nc(-c3nccn3C)nn3cc(-c4ccncc4)c(C)c23)ncn1 [Compound 49, N-(6-Methoxypyrimidin-4-yl)-5-methyl-2-(1-methyl-1H-imidazol-2-yl)-6-(pyridin-4-yl)pyrrolo[2,1-f][1,2,4]triazin-4-amine] | 26 to 49
22 | Cc1c(-c2ccn(C(C)C)n2)cn2nc(-c3nccn3C)nc(Nc3cc(C4CC4)n[nH]3)c12 [Compound 68, N-(3-Cyclopropyl-1H-pyrazol-5-yl)-6-(1-isopropyl-1H-pyrazol-3-yl)-5-methyl-2-(1-methyl-1H-imidazol-2-yl)pyrrolo[2,1-f][1,2,4]triazin-4-amine] | 76 to 100
23 | COc1ccc(Nc2nc(-c3nccn3C)nn3cc(-c4ccn(C(C)C)n4)c(C)c23)nn1 [Compound 74, 6-(1-Isopropyl-1H-pyrazol-3-yl)-N-(6-methoxypyridazin-3-yl)-5-methyl-2-(1-methyl-1H-imidazol-2-yl)pyrrolo[2,1-f][1,2,4]triazin-4-amine] | 0
